target: T1, human full-length recombinant PKC βII (Homo sapiens, UniProt P05771); experiment: Determination of PKC βII inhibition (Caliper mobility shift kinase assay); format: biochemical; conditions: final compound concentration 1.14 μM (±0.15 μM); 60 min incubation at 32° C.
T1 construct: Active human full-length recombinant PKC βII; purchased Invitrogen GmbH, Darmstadt, Germany
How it was run: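 Compound was tested at a final 1.14 µM (±0.15 µM), with % inhibition derived from the product/(substrate+product) peak ratio on a Caliper mobility-shift read-out. Full-length PKC βII was activated by CaCl2, PS and DAG in pH 7.4 Hepes/MgCl2. Peptide and ATP were at 3 µM and 120 µM in the added mix. Incubation was 60 min at 32 °C.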

T1 sequence (P05771 1-673 isoform P05771-2): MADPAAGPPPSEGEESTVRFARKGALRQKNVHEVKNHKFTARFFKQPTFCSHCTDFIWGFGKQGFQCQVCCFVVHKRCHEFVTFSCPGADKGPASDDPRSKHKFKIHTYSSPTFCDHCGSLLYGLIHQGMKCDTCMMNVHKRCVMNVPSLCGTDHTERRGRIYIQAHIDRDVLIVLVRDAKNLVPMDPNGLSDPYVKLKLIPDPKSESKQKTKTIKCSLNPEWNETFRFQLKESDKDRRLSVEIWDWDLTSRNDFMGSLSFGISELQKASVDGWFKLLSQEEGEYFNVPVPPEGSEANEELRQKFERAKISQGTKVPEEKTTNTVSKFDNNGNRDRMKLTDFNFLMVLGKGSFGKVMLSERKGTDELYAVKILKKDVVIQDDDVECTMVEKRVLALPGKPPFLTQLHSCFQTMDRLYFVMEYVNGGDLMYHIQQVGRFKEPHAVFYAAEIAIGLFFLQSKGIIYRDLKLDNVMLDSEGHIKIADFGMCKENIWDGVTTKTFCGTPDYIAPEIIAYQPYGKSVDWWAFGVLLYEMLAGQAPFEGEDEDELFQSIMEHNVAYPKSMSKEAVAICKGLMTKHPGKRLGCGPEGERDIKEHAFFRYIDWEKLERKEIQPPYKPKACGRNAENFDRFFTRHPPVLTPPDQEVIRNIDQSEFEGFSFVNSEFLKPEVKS

**Q.** `Cc1n[nH]c2nc(-c3ccc(O)cc3)cc(CN3CC(C)(C)N(CCC(F)(F)F)CC3(C)C)c12` [Example 83, 4-{3-Methyl-4-[2,2,5,5-tetramethyl-4-(3,3,3-trifluoro-propyl)-piperazin-1-ylmethyl]-1H-pyrazolo[3,4-b]pyridin-6-yl}-phenol] was tested. Which inhibition at 1.14 µM did it give?
**A.** Its inhibition at 1.14 µM is 69%.

**Q.** Which inhibition at 1.14 µM does the source give for `Cc1n[nH]c2nc(-c3ccc(O)cc3F)cc(CN3CC4(CCCC4)NC[C@@H]3C)c12` [Example 137, 3-Fluoro-4-[3-methyl-4-((S)-8-methyl-6,9-diaza-spiro[4.5]dec-9-ylmethyl)-1H-pyrazolo[3,4-b]pyridin-6-yl]-phenol] here?
**A.** Its inhibition at 1.14 µM is 98%.

**Q.** Which inhibition at 1.14 µM does the source give for `CCC1(CC)CN(Cc2cc(-c3ccc(O)cc3Cl)nc3[nH]nc(C)c23)C(C)(C)CN1` [Example 59, 3-Chloro-4-[4-(5,5-diethyl-2,2-dimethyl-piperazin-1-ylmethyl)-3-methyl-1H-pyrazolo[3,4-b]pyridin-6-yl]-phenol] here?
**A.** Its inhibition at 1.14 µM is 96%.

**Q.** Which inhibition at 1.14 µM does the source give for `CNCCN1CC(C)(C)N(Cc2cc(-c3ccc(O)cc3)nc3[nH]nc(C)c23)CC1(C)C` [Example 85, 4-{3-Methyl-4-[2,2,5,5-tetramethyl-4-(2-methylamino-ethyl)-piperazin-1-ylmethyl]-1H-pyrazolo[3,4-b]pyridin-6-yl}-phenol] here?
**A.** The inhibition at 1.14 µM was 101%.

**Q.** With `CC[C@@H]1CNC(C)(C)CN1Cc1cc(-c2ccc(O)cc2)nc2[nH]nc(C)c12` [Example 146, 4-[4-((R)-2-Ethyl-5,5-dimethyl-piperazin-1-ylmethyl)-3-methyl-1H-pyrazolo[3,4-b]pyridin-6-yl]-phenol] as the compound, how does the inhibition at 1.14 µM read?
**A.** The inhibition at 1.14 µM was 99%.

**Q.** Which inhibition at 1.14 µM does the source give for `Cc1n[nH]c2nc(-c3ccc(O)cc3F)cc(CN3CC(C)(C)NC[C@]3(C)C3CC3)c12` [Example 125, 4-[4-((S)-2-Cyclopropyl-2,5,5-trimethyl-piperazin-1-ylmethyl)-3-methyl-1H-pyrazolo[3,4-b]pyridin-6-yl]-3-fluoro-phenol] here?
**A.** Its inhibition at 1.14 µM is 87%.

**Q.** For `Cc1n[nH]c2nc(-c3ccc(O)cc3F)cc(CN3C[C@@H](C)NCC34CCCC4)c12` [Example 128, 3-Fluoro-4-[3-methyl-4-((R)-8-methyl-6,9-diaza-spiro[4.5]dec-6-ylmethyl)-1H-pyrazolo[3,4-b]pyridin-6-yl]-phenol], which inhibition at 1.14 µM is on record?
**A.** Its inhibition at 1.14 µM is 71%.

**Q.** For `Cc1n[nH]c2nc(-c3ccc(O)cc3)cc(CN3CC(C)(C)NCC3(C)C)c12` [Example 49, 4-[3-Methyl-4-(2,2,5,5-tetramethyl-piperazin-1-ylmethyl)-1H-pyrazolo[3,4-b]pyridin-6-yl]-phenol], which inhibition at 1.14 µM is on record?
**A.** The inhibition at 1.14 µM was 95%.

**Q.** With `Cc1n[nH]c2nc(-c3ccc(O)cc3F)cc(CN3CC(C)(C)NCC3C)c12` (stereo not drawn) [Example 38, 3-Fluoro-4-[3-methyl-4-(2,5,5-trimethyl-piperazin-1-ylmethyl)-1H-pyrazolo[3,4-b]pyridin-6-yl]-phenol] as the compound, how does the inhibition at 1.14 µM read?
**A.** Its inhibition at 1.14 µM is 99%.

— patent US9133181B2, “Substituted 6-(4-hydroxy-phenyl)-1H-pyrazolo[3,4-b]pyridine derivatives as kinase inhibitors” (SANOFI, priority 2012, dated 2015)
